Results from ChEMBL document CHEMBL3797202, “Novel Oxindole Sulfonamides and Sulfamides: EPZ031686, the First Orally Bioavailable Small Molecule SMYD3 Inhibitor” (ACS Med Chem Lett, 2016).

How the values were obtained:
[1] = biological target: T1, Histone-lysine N-methyltransferase SMYD3 (Homo sapiens, UniProt Q9H7B4); assay: Inhibition of human SMYD3 expressed in HEK293T/17 cells using FLAG-tagged MEKK2 as substrate incubated for 30 mins in low air flow area followed by incubation for 24 hrs at 37 degC by Western blot analysis; type: cell-based, HEK-293T
T1 sequence (Q9H7B4 whole entry): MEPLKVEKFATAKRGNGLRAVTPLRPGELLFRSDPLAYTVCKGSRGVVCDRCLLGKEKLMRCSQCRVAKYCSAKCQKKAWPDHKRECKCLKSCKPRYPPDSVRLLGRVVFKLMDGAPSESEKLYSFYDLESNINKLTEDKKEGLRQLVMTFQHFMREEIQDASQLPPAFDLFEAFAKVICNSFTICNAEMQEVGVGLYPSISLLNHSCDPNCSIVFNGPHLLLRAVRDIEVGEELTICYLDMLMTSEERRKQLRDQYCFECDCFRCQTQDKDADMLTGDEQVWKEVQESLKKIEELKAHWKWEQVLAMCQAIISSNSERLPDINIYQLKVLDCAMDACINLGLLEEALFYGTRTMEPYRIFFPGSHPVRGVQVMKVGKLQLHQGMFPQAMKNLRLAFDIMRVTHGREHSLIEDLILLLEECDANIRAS

[2] = biological target: T1, Histone-lysine N-methyltransferase SMYD3; assay: Inhibition of full length N-terminal His-tagged SMYD3 (1 to 428 residues) (unknown origin) expressed in Escherichia coli using N-terminal GST-tagged MEKK2 as substrate preincubated for 30 mins followed by substrate addition by scintillation proximity assay in presence of [3H]SAM

Row | SMILES | IC50 [1] [nM] | IC50 [2] [nM]
1 | O=C1Cc2cc(C(=O)NC3CCN(S(=O)(=O)CC4CCNCC4)CC3)ccc2N1 | > 10000 | 70
2 | O=C1Cc2cc(C(=O)N[C@H]3C[C@H]4CC[C@@H](C3)N4S(=O)(=O)C[C@H]3CCCNC3)c(Cl)cc2N1 | 1300 | 4
3 | NCCCS(=O)(=O)N1CCC(NC(=O)c2ccc3c(c2)CC(=O)N3)CC1 | > 10000 | 
4 | NC1CCN(S(=O)(=O)N2[C@@H]3CC[C@H]2C[C@@H](NC(=O)c2cc4c(cc2Cl)NC(=O)C4)C3)CC1 | 1100 | 1
5 | Cc1cc2c(cc1C(=O)N[C@H]1C[C@H]3CC[C@@H](C1)N3S(=O)(=O)N1CCC(N)CC1)CC(=O)N2 | 410 | 
6 | N[C@H]1CC[C@H](S(=O)(=O)N2[C@@H]3CC[C@H]2C[C@@H](NC(=O)c2ccc4c(c2)CC(=O)N4)C3)CC1 | 2200 | 4
7 | O=C1Cc2cc(C(=O)N[C@H]3C[C@H]4CC[C@@H](C3)N4S(=O)(=O)CC3CCNCC3)c(Cl)cc2N1 | 3200 | 4
8 | NC1CCN(S(=O)(=O)N2[C@@H]3CC[C@H]2C[C@@H](NC(=O)c2cc4c(cc2F)NC(=O)C4)C3)CC1 |  | 5
9 | NCCCS(=O)(=O)N1CCC(NC(=O)c2cc3c(cc2Cl)NC(=O)C3)CC1 |  | 80
10 | CN1CCC(CS(=O)(=O)N2[C@@H]3CC[C@H]2C[C@@H](NC(=O)c2ccc4c(c2)CC(=O)N4)C3)CC1 |  | 1
11 | CN(C)C1CCN(S(=O)(=O)N2[C@@H]3CC[C@H]2C[C@@H](NC(=O)c2cc4c(cc2Cl)NC(=O)C4)C3)CC1 |  | 3
12 | CNC1CCN(S(=O)(=O)N2[C@@H]3CC[C@H]2C[C@@H](NC(=O)c2cc4c(cc2Cl)NC(=O)C4)C3)CC1 |  | 2
13 | NC1CCN(S(=O)(=O)N2[C@@H]3CC[C@H]2C[C@@H](NC(=O)c2ccc4c(c2)CC(=O)N4)C3)CC1 |  | 1
14 | O=C1Cc2cc(C(=O)N[C@H]3C[C@H]4CC[C@@H](C3)N4S(=O)(=O)CC3CCN(CCCO)CC3)c(Cl)cc2N1 |  | 2
